Experimental data: PMC11414412, “Design and synthesis new indole-based aromatase/iNOS inhibitors with apoptotic antiproliferative activity” (Frontiers in Chemistry, 2024)

Assays:
A-549 cells = experiment: Antiproliferative assay, A-549; type: cell-based; settings: Homo sapiens, A549; A-549 lung cancer cell line; read-out: Antiproliferative activity IC50 ± SEM, A-549
Method: (§1) 4.2.2. Assay for antiproliferative effect
(§2) To explore the antiproliferative potential of compounds propidium iodide fluorescence assay was performed using different cell lines such as Panc-1 (pancreas cancer cell line), MCF-7 (breast cancer cell line), HT-29 (colon cancer cell line) and A-549 (epithelial cancer cell line), respectively. To calculate the total nuclear DNA, a fluorescent dye (propidium iodide, PI) is used which can attach to the DNA, thus offering a quick and precise technique. PI cannot pass through the cell membrane and its signal intensity can be considered as directly proportional to quantity of cellular DNA. Cells whose cell membranes are damaged or have changed permeability are counted as dead ones. The assay was performed by seeding the cells of different cell lines at a density of 3000-7500 cells/well (in200μl medium) in culture plates followed by incubation for 24h at 37 °C in humidified 5%CO2/95% air atmospheric conditions. The medium was removed; the compounds were added to the plates at 10 μM concentrations (in 0.1% DMSO) in triplicates, followed by incubation for 48h. DMSO (0.1%) was used as control. After incubation, medium was removed followed by the addition of PI (25 μl, 50μg/mL in water/medium) to each well of the plates. At - 80 °C, the plates were allowed to freeze for 24 h, followed by thawing at 25 °C. A fluorometer (Polar-Star BMG Tech) was used to record the readings at excitation and emission wavelengths of 530 and 620 nm for each well. The percentage cytotoxicity of compounds was calculated using […]
(§3) Where ATC= Absorbance of treated cells and AC= Absorbance of control. Erlotinib was used as positive control in the assay.

MCF-7 cells = experiment: Antiproliferative assay, MCF-7; type: cell-based; settings: Homo sapiens, MCF7; MCF-7 breast cancer cell line; read-out: Antiproliferative activity IC50 ± SEM, MCF-7
Method: as §1, §2, §3

[1] = tested on: four human cancer cell lines (A-549, MCF-7, Panc-1, HT-29); experiment: Antiproliferative assay, average over four cancer cell lines (GI50); type: cell-based; settings: for IC50: Homo sapiens, average of IC50 against A-549, MCF-7, Panc-1, HT-29
Method: See Supplementary Appendix SA1 for more details.
as §1
To explore the antiproliferative potential of compounds propidium iodide fluorescence assay was performed using different cell lines such as Panc-1 (pancreas cancer cell line), MCF-7 (breast […]
respectively. To calculate the total nuclear DNA, a fluorescent dye (propidium iodide, PI) is used which can attach to the DNA, thus offering a quick and precise technique. PI cannot pass through the cell membrane and its signal intensity can be considered as directly proportional to quantity of cellular DNA. Cells whose cell membranes are damaged or have changed permeability are counted as dead ones. The assay was performed by seeding the cells of different cell lines at a density of […]
The medium was removed; the compounds were added to the plates at 10 μM concentrations (in 0.1% DMSO) in triplicates, followed by incubation for 48h. DMSO (0.1%) was used as control. After incubation, medium was removed followed by the addition of PI (25 μl, 50μg/mL in water/medium) to each well of the plates. At - 80 °C, the plates were allowed to freeze for 24 h, followed by thawing at 25 °C. A fluorometer (Polar-Star BMG Tech) was used to record the readings at excitation and emission wavelengths of 530 and 620 nm for each well. The percentage cytotoxicity of compounds was calculated using […]
Where ATC= Absorbance of treated cells and AC= Absorbance of control. […]
positive control in the assay.

Panc-1 cells = experiment: Antiproliferative assay, Panc-1; type: cell-based; settings: Homo sapiens; Panc-1 pancreatic cancer cell line; read-out: Antiproliferative activity IC50 ± SEM, Panc-1
Method: as §1, §2, §3

HT-29 cells = experiment: Antiproliferative assay, HT-29; type: cell-based; settings: Homo sapiens; HT-29 colon cancer cell line; read-out: Antiproliferative activity IC50 ± SEM, HT-29
Method: as §1, §2, §3

[2] = Cell viability assay (MTT) on normal mammary epithelial cells; type: cell-based, human; settings: human, MCF-10A normal mammary gland epithelial cells, MCF-10A normal cells, 4 days incubation
Method: This test investigates the effects of the new compounds 3–16 on normal cell lines to determine their safety. The normal human mammary gland epithelial (MCF-10 A) cell line was used to test the viability of the tested compounds. After 4 days of incubation on MCF-10 A cells within 50 µM of each investigated compound, cell viability was determined using the MTT assay ([Gomaa et al., 2020]; [Marzouk et al., 2020]).
The normal human mammary gland epithelial (MCF-10A) cell line was used to test the viability of the tested compounds. After 4 days of incubation on MCF-10A cells within 50 µM of each investigated compound, cell viability was determined using the MTT assay ([Gomaa et al., 2020]; [Marzouk et al., 2020]). Refer to Supplementary Appendix SA1 (supp. File) for more details.
4.2. Biological evaluation
4.2.1 Cell Viability assay (MTT assay)
MTT assay was performed to investigate the effect of the synthesized compounds on mammary epithelial cells (MCF-10A). The cells were propagated in medium consisting of Ham's F-12 medium/ Dulbecco's modified Eagle's medium (DMEM) (1:1) supplemented with 10% foetal calf serum, 2 mM glutamine, insulin (10 μg/mL), hydrocortisone (500 ng/mL) and epidermal growth factor (20 ng/mL). Trypsin ethylenediamine tetra acetic acid (EDTA) was used to passage the cells after every 2-3 days. 96-well flat-bottomed cell culture plates were used to seed the cells at a density of 10^4 cells mL-1. The medium was aspirated from all the wells of culture plates after 24 h followed by the addition of synthesized compounds (in 200 μL medium to yield a final concentration of 0.1% (v/v) dimethyl sulfoxide) into individual wells of the plates. Four wells were designated to a single compound. The plates were allowed to incubate at 37°C for 96 h. Afterwards, the medium was aspirated and 3-[4,5-dimethylthiazol-2-yl]-2,5-diphenyltetrazolium bromide (MTT) (0.4 mg/mL) in medium was added to each well and subsequently incubated for 3 h. The medium was aspirated and 150 μL dimethyl sulfoxide (DMSO) was added to each well. The plates were vortexed followed by the measurement of absorbance at 540 nm on a microplate reader. The results were presented as inhibition (%) of proliferation in contrast to controls comprising 0.1%

aromatase (CYP19) = target: T1, aromatase (CYP19) (Homo sapiens, UniProt P11511); experiment: Aromatase inhibitory assay (Gentest kit, DBF fluorometric substrate)
T1 sequence (P11511 1-503): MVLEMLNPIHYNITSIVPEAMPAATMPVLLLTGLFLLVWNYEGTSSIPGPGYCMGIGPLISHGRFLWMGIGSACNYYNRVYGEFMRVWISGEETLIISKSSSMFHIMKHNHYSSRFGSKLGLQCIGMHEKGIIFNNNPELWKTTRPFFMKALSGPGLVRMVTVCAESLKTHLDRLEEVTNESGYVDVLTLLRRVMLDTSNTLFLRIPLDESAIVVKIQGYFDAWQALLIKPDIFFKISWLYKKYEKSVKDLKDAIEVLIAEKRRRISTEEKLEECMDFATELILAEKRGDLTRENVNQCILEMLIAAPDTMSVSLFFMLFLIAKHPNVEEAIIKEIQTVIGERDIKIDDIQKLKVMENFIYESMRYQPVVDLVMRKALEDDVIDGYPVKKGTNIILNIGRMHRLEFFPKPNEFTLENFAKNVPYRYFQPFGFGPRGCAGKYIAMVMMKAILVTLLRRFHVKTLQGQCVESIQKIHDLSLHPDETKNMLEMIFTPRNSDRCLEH
Method: The aromatase inhibitory effect was performed using the method reported by Stressor et al.[35].
This method was carried out according to the Gentest kit using CYP19 enzyme and DBF as a
fluorometric substrate. DBF was dealkylated by aromatase and then hydrolyzed to give the
fluorescein product. Briefly, 100 μL of cofactor, containing 78.4 μL of 50 mM phosphate buffer
(pH 7.4); 20 μL of 20x NADPH-generating system (26 mM NADP+, 66 mM glucose-6-phosphate,
and 66 mM MgCl2); and 1.6 μL of 100 U/mL glucose-6-phosphate dehydrogenase, was pipetted
into a 96-well plate and preincubated in 37 °C (water bath) for 10 min. The reaction was initiated
by addition of 100 μL of enzyme/substrate mixture containing 77.3 μL of 50 mM
phosphate buffer (pH 7.4); 12.5 μL of 16 pmol/mL CYP19; 0.2 μL of 0.2 mM DBF, and 10 μL of
0.25 mM diluted tested sample or 10% DMSO as a negative control or letrozole as a positive
control. Fluorescence signal was recorded using an excitation wavelength of 490 nm and emission
Percentage of inhibition (%inhibition) was calculated
as shown in Equation (1).
assayed in triplicate. Finally, IC50 values were determined by plot of concentrations versus %

| Compound | IC50 (A-549 cells) [nM] | IC50 (MCF-7 cells) [nM] | melting point [°C] | IC50 [1] [nM] | IC50 (Panc-1 cells) [nM] | IC50 (HT-29 cells) [nM] | viability at 4 days, 50 µM [2] [%] | IC50 (aromatase (CYP19)) [nM] | Fold less potent than compound 12 (GI50) [1] [fold] |
| --- | --- | --- | --- | --- | --- | --- | --- | --- | --- |
| CCc1c2n(c3ccc(Cl)cc13)C(=O)C(Cc1ccccc1)NC2=O (stereo not shown) [Compound 9, 3-benzyl-8-chloro-10-ethyl-2,3-dihydropyrazino [1,2-a] indole-1,4-dione] | 48 ± 4 | 50 ± 4 | 196 to 198 | 49 | 47 ± 4 | 50 ± 5 | 91 | – | – |
| CCc1c(C(=O)NC(C(=O)OCc2ccccc2)C(C)O)[nH]c2ccc(Cl)cc12 (stereo not shown) [Compound 3, Benzyl 2-(5-chloro-3-ethyl-1H-indol-2-carboxamido)-3-hydroxybutanoate] | 57 ± 5 | 62 ± 5 | – | 59 | 58 ± 5 | 60 ± 5 | 91 | – | – |
| CCc1c2n(c3ccc(Cl)cc13)C(O)C(c1ccccc1)NC2=O (stereo not shown) [Compound 15, 8-Chloro-10-ethyl-4-hydroxy-3-phenyl-3,4-dihydropyrazino [1,2-a] indol-1(2H)-one] | 69 ± 6 | 76 ± 7 | 213 to 215 | 72 | 72 ± 7 | 74 ± 7 | 92 | – | – |
| CCOC(=O)C(Cc1ccccc1)NC(=O)c1[nH]c2ccc(Cl)cc2c1CC (stereo not shown) [Compound 8, ethyl 2-(5-chloro-3-ethyl-1h-indole-2-carboxamido)-3-phenylpropanoate] | 37 ± 3 | 40 ± 3 | – | 38 | 37 ± 3 | 38 ± 3 | 92 | 33 ± 3 | – |
| C#Cc1cccc(Nc2ncnc3cc(OCCOC)c(OCCOC)cc23)c1 [Erlotinib, reference compound] | 30 ± 3 | 40 ± 3 | – | – | 30 ± 3 | 30 ± 3 | – | – | – |
| CCc1c2cc(Cl)ccc2n2cc(Cc3ccccc3)[nH]c(=O)c12 [Compound 11, 3-Benzyl-8-chloro-10-ethylpyrazino[1,2-a]indol-1(2H)-one] | 40 ± 4 | 43 ± 4 | – | 41 | 40 ± 4 | 42 ± 4 | 92 | – | 1.7 |
| CCc1c(C(=O)NC(C(C)=O)C(=O)OCc2ccccc2)[nH]c2ccc(Cl)cc12 (stereo not shown) [Compound 4, benzyl 2-(5-chloro-3-ethyl-1h-indol-2-carboxamido)-3-oxobutanoate] | 59 ± 5 | 65 ± 6 | – | 62 | 60 ± 5 | 64 ± 6 | 89 | – | – |
| CCc1c2n(c3ccc(Cl)cc13)C(=O)C(c1ccccc1)NC2=O (stereo not shown) [Compound 14, 8-Chloro-10-ethyl-3-phenyl-2,3-dihydropyrazino [1,2-a] indole-1,4-dione] | 44 ± 4 | 46 ± 4 | 202 to 204 | 45 | 44 ± 4 | 46 ± 4 | 90 | – | – |
| CCc1c2n(c3ccc(Cl)cc13)C(O)C(Cc1ccccc1)NC2=O (stereo not shown) [Compound 10, 3-benzyl-8-chloro-10-ethyl-4-hydroxy-3,4-dihydropyrazino [1,2-a] indol-1(2H)-one] | 53 ± 5 | 56 ± 5 | 160 to 162 | 54 | 54 ± 5 | 54 ± 5 | 89 | – | – |
| CCc1c2cc(Cl)ccc2n2c(C)c(C(=O)O)[nH]c(=O)c12 [Compound 6, 8-chloro-10-ethyl-4-methyl-1-oxo-1,2-dihydropyrazino [1,2-a]indole-3-carboxylic acid] | 65 ± 6 | 68 ± 6 | 270 to 272 | 66 | 64 ± 6 | 66 ± 6 | 92 | – | – |
| CCc1c(C(=O)NC(C(=O)OC)c2ccccc2)[nH]c2ccc(Cl)cc12 (stereo not shown) [Compound 13, Methyl 2-(5-chloro-3-ethyl-1h-indole-2-carboxamido)-2-phenylacetate] | 34 ± 3 | 36 ± 3 | 210 to 212 | 35 | 35 ± 3 | 34 ± 3 | 91 | 28 ± 2 | – |
